Results: PubChem BioAssay AID1259407 (Chemical Carcinogenesis Research Information System (CCRIS), 2018)
The source made the active and inactive calls. No rule for the calls is given here.

System: CCRIS mutagenicity, Ames/micronucleus/aberration tests
Assay: CCRIS mutagenicity studies
[1] = Test System: AMES SALMONELLA TYPHIMURIUM, Strain/Indicator: TA98, Metabolic Activation: NONE, Method: PREINCUBATION
[2] = Test System: AMES SALMONELLA TYPHIMURIUM, Strain/Indicator: TA100, Metabolic Activation: NONE, Method: PREINCUBATION
[3] = Test System: AMES SALMONELLA TYPHIMURIUM, Strain/Indicator: TA1535, Metabolic Activation: NONE, Method: PREINCUBATION
[4] = Test System: AMES SALMONELLA TYPHIMURIUM, Strain/Indicator: TA100, Metabolic Activation: NONE, Method: STANDARD PLATE

Which mutagenic call (Test System: AMES SALMONELLA TYPHIMURIUM, Strain/Indicator: TA97, Metabolic Activation: HAMSTER, LIVER, S-9, AROCLOR 1254 (10%), Method: PREINCUBATION) does the source give for `Nc1ccccc1Cl` here?
The mutagenic call was “inactive; negative”.

What about the mutagenic call (Test System: AMES SALMONELLA TYPHIMURIUM, Strain/Indicator: TA97, Metabolic Activation: HAMSTER, LIVER, S-9, AROCLOR 1254 (30%), Method: PREINCUBATION) of the same compound?
The mutagenic call was “inactive; negative”.

What about the mutagenic call (Test System: AMES SALMONELLA TYPHIMURIUM, Strain/Indicator: TA97, Metabolic Activation: NONE, Method: PREINCUBATION) of the same compound?
The mutagenic call was “inactive; negative”.

And the mutagenic call (Test System: AMES SALMONELLA TYPHIMURIUM, Strain/Indicator: TA97, Metabolic Activation: RAT, LIVER, S-9, AROCLOR 1254 (10%), Method: PREINCUBATION)?
The mutagenic call was “inactive; negative”.

And the mutagenic call (Test System: AMES SALMONELLA TYPHIMURIUM, Strain/Indicator: TA97, Metabolic Activation: RAT, LIVER, S-9, AROCLOR 1254 (30%), Method: PREINCUBATION)?
Its mutagenic call is “inactive; negative”.

What about the mutagenic call (Test System: AMES SALMONELLA TYPHIMURIUM, Strain/Indicator: TA98, Metabolic Activation: HAMSTER, LIVER, S-9, AROCLOR 1254 (10%), Method: PREINCUBATION) of the same compound?
Its mutagenic call is “inactive; negative”.

What about the mutagenic call (Test System: AMES SALMONELLA TYPHIMURIUM, Strain/Indicator: TA98, Metabolic Activation: HAMSTER, LIVER, S-9, AROCLOR 1254 (30%), Method: PREINCUBATION) of the same compound?
The mutagenic call was “inactive; negative”.

And the mutagenic call [1]?
Its mutagenic call is “inactive; negative”.

What about the mutagenic call (Test System: AMES SALMONELLA TYPHIMURIUM, Strain/Indicator: TA98, Metabolic Activation: RAT, LIVER, S-9, AROCLOR 1254 (10%), Method: PREINCUBATION) of the same compound?
The mutagenic call was “inactive; negative”.

And the mutagenic call (Test System: AMES SALMONELLA TYPHIMURIUM, Strain/Indicator: TA98, Metabolic Activation: RAT, LIVER, S-9, AROCLOR 1254 (30%), Method: PREINCUBATION)?
The mutagenic call was “inactive; negative”.

And the mutagenic call (Test System: AMES SALMONELLA TYPHIMURIUM, Strain/Indicator: TA100, Metabolic Activation: HAMSTER, LIVER, S-9, AROCLOR 1254 (10%), Method: PREINCUBATION)?
The mutagenic call was “inactive; negative”.

What about the mutagenic call (Test System: AMES SALMONELLA TYPHIMURIUM, Strain/Indicator: TA100, Metabolic Activation: HAMSTER, LIVER, S-9, AROCLOR 1254 (30%), Method: PREINCUBATION) of the same compound?
Its mutagenic call is “inactive; negative”.

And the mutagenic call [2]?
Its mutagenic call is “inactive; negative”.

And the mutagenic call (Test System: AMES SALMONELLA TYPHIMURIUM, Strain/Indicator: TA100, Metabolic Activation: RAT, LIVER, S-9, AROCLOR 1254 (10%), Method: PREINCUBATION)?
The mutagenic call was “inactive; negative”.

What about the mutagenic call (Test System: AMES SALMONELLA TYPHIMURIUM, Strain/Indicator: TA100, Metabolic Activation: RAT, LIVER, S-9, AROCLOR 1254 (30%), Method: PREINCUBATION) of the same compound?
Its mutagenic call is “inactive; negative”.

And the mutagenic call (Test System: AMES SALMONELLA TYPHIMURIUM, Strain/Indicator: TA1535, Metabolic Activation: HAMSTER, LIVER, S-9, AROCLOR 1254 (10%), Method: PREINCUBATION)?
Its mutagenic call is “inactive; negative”.

What about the mutagenic call (Test System: AMES SALMONELLA TYPHIMURIUM, Strain/Indicator: TA1535, Metabolic Activation: HAMSTER, LIVER, S-9, AROCLOR 1254 (30%), Method: PREINCUBATION) of the same compound?
The mutagenic call was “inactive; negative”.

What about the mutagenic call [3] of the same compound?
Its mutagenic call is “inactive; negative”.

What about the mutagenic call (Test System: AMES SALMONELLA TYPHIMURIUM, Strain/Indicator: TA1535, Metabolic Activation: RAT, LIVER, S-9, AROCLOR 1254 (10%), Method: PREINCUBATION) of the same compound?
Its mutagenic call is “inactive; negative”.

What about the mutagenic call (Test System: AMES SALMONELLA TYPHIMURIUM, Strain/Indicator: TA1535, Metabolic Activation: RAT, LIVER, S-9, AROCLOR 1254 (30%), Method: PREINCUBATION) of the same compound?
Its mutagenic call is “inactive; negative”.

And the mutagenic call (Test System: CHINESE HAMSTER V-79, Strain/Indicator: V-79/8-AZAGUANINE, Metabolic Activation: NONE, Method: SUSPENSION/PLATE)?
The mutagenic call was “active; positive”.

And the mutagenic call (Test System: CHINESE HAMSTER V-79, Strain/Indicator: V-79/OUABAIN, Metabolic Activation: NONE, Method: SUSPENSION/PLATE)?
Its mutagenic call is “inactive; negative”.

What about the mutagenic call (Test System: MOUSE LYMPHOMA, Strain/Indicator: L5178Y (TK+/TK-), Metabolic Activation: NONE, Method: SUSPENSION/PLATE) of the same compound?
The mutagenic call was “inactive; negative”.

And the mutagenic call (Test System: MOUSE LYMPHOMA, Strain/Indicator: L5178Y (TK+/TK-), Metabolic Activation: RAT, LIVER, S-9, AROCLOR 1254, Method: SUSPENSION/PLATE)?
Its mutagenic call is “active; positive”.

What about the mutagenic call (Test System: UDS RODENT HEPATOCYTES, Strain/Indicator: THY INCORP (NON-S-PHASE), Metabolic Activation: NONE, Method: AUTORADIOGRAPHY) of the same compound?
The mutagenic call was “inactive; negative”.

For `Clc1ccc(Cl)c(Cl)c1`, which mutagenic call (Test System: AMES SALMONELLA TYPHIMURIUM, Strain/Indicator: TA98, Metabolic Activation: HAMSTER, LIVER, S-9, AROCLOR 1254, Method: PREINCUBATION) is on record?
Its mutagenic call is “inactive; negative”.

And the mutagenic call [1]?
Its mutagenic call is “inactive; negative”.

What about the mutagenic call (Test System: AMES SALMONELLA TYPHIMURIUM, Strain/Indicator: TA98, Metabolic Activation: RAT, LIVER, S-9, AROCLOR 1254, Method: PREINCUBATION) of the same compound?
The mutagenic call was “inactive; negative”.

What about the mutagenic call (Test System: AMES SALMONELLA TYPHIMURIUM, Strain/Indicator: TA100, Metabolic Activation: HAMSTER, LIVER, S-9, AROCLOR 1254, Method: PREINCUBATION) of the same compound?
The mutagenic call was “inactive; negative”.

What about the mutagenic call [2] of the same compound?
The mutagenic call was “inactive; negative”.

What about the mutagenic call (Test System: AMES SALMONELLA TYPHIMURIUM, Strain/Indicator: TA100, Metabolic Activation: RAT, LIVER, S-9, AROCLOR 1254, Method: PREINCUBATION) of the same compound?
Its mutagenic call is “inactive; negative”.

And the mutagenic call (Test System: AMES SALMONELLA TYPHIMURIUM, Strain/Indicator: TA1535, Metabolic Activation: HAMSTER, LIVER, S-9, AROCLOR 1254, Method: PREINCUBATION)?
Its mutagenic call is “inactive; negative”.

What about the mutagenic call [3] of the same compound?
Its mutagenic call is “inactive; negative”.

And the mutagenic call (Test System: AMES SALMONELLA TYPHIMURIUM, Strain/Indicator: TA1535, Metabolic Activation: RAT, LIVER, S-9, AROCLOR 1254, Method: PREINCUBATION)?
Its mutagenic call is “inactive; negative”.

And the mutagenic call (Test System: AMES SALMONELLA TYPHIMURIUM, Strain/Indicator: TA1537, Metabolic Activation: HAMSTER, LIVER, S-9, AROCLOR 1254, Method: PREINCUBATION)?
Its mutagenic call is “inactive; negative”.

What about the mutagenic call (Test System: AMES SALMONELLA TYPHIMURIUM, Strain/Indicator: TA1537, Metabolic Activation: NONE, Method: PREINCUBATION) of the same compound?
The mutagenic call was “inactive; negative”.

And the mutagenic call (Test System: AMES SALMONELLA TYPHIMURIUM, Strain/Indicator: TA1537, Metabolic Activation: RAT, LIVER, S-9, AROCLOR 1254, Method: PREINCUBATION)?
Its mutagenic call is “inactive; negative”.

Which mutagenic call (Test System: AMES SALMONELLA TYPHIMURIUM, Strain/Indicator: TA98, Metabolic Activation: NONE, Method: STANDARD PLATE) does the source give for `CC(C)(C)c1ccc(/C=C/c2ccc(N)cc2)cc1` here?
The mutagenic call was “inactive; negative”.

And the mutagenic call (Test System: AMES SALMONELLA TYPHIMURIUM, Strain/Indicator: TA98, Metabolic Activation: RAT, LIVER, S-9, AROCLOR, Method: STANDARD PLATE)?
The mutagenic call was “inactive; negative”.

What about the mutagenic call [4] of the same compound?
Its mutagenic call is “inactive; negative”.

And the mutagenic call (Test System: AMES SALMONELLA TYPHIMURIUM, Strain/Indicator: TA100, Metabolic Activation: RAT, LIVER, S-9, AROCLOR, Method: STANDARD PLATE)?
Its mutagenic call is “inactive; negative”.

For `CC(=O)O[C@@H]1[C@H](OC(C)=O)COC(Nc2ccc([N+](=O)[O-])cc2)[C@@H]1OC(C)=O` (stereo partly drawn), which mutagenic call [4] is on record?
The mutagenic call was “active; positive”.

Which mutagenic call (Test System: UDS RODENT HEPATOCYTES, Strain/Indicator: THY INCORP, Metabolic Activation: NONE, Method: AUTORADIOGRAPHY) does the source give for `Cc1cc(O)c2c(c1O)C(=O)c1c(-c3ccc(O)c4c3C(=O)c3c(O)c(C)cc(O)c3C4=O)ccc(O)c1C2=O` here?
The mutagenic call was “inactive; negative”.
